Reference: patent US7151180B2, “Potassium channel modulators” (Bristol-Myers Squibb Company, priority 2003, dated 2006)

Key:
[1] = test system: rat small intestine tissue; assay: Relaxation of rat small intestine (ileum) strips (nifedipine-sensitive force); settings: integral of nifedipine-sensitive force, 30 min post-compound
Excerpt: The ability of the compounds of the invention to relax rat small intestine tissue as a model for the treatment of irritable bowel syndrome is described as follows. Male rats (Harlan, Sprague Dawley, 250–350 g) were sacrificed by decapitation. A portion of small intestine (ileum) was removed and the attached connective tissues and intestinal contents removed. The ileum was cut into segments of ≦1 cm in length. The segments were mounted longitudinally between fixed hooks in organ baths containing warm (37° C.) physiological salt solution (composition in mM: NaCl 118.4,KCl 4.7,KH2PO4 1.2,MgSO4 1.2,CaCl2 1.8,Glucose 10.1, NaHCO3 25; gassed with 95% O2/5% CO2, pH 7.4). A stable tension of ˜1.5 g was maintained in the tissue segments during the equilibration period of 45 minutes. Changes in muscle tension were measured with isometric force transducers (Grass, FT-03C) and recorded using AcqKnowledge data acquisition system (AcqKnowledge for MP100WS, Biopac Systems Inc., Goleta, Calif.). Compound or vehicle was added in the baths for 30 minutes. “Zero” active force was established at the end of the experiment using nifedipine (20 μM). The effects of compounds or vehicle on force was determined by measuring the integral of nifedipine-sensitive force (including resting tone and spontaneous contractions) pre- and 30 min post-compound (or vehicle) addition. Results are expressed as the percentage inhibition of force. DMSO vehicle inhibited force (integral) by −0.6±3.0% (n=25).

[2] = test system: rabbit corpus cavernosum tissue; assay: Relaxation of rabbit corpus cavernosum strips (phenylephrine-induced force); settings: Oryctolagus cuniculus, inhibition of phenylephrine (3 μM)-induced force compared to vehicle control, read-out: % Inhibition of force (RCC strips)
Protocol: The ability of the compounds of the invention to relax rabbit corpus cavernosum tissue as a model for the treatment of erectile dysfunction is described as follows. New Zealand white rabbits (3.4–3.7 kg) were euthanized by sodium pentobarbital (100 mg/kg) overdose. The penis from each animal was rapidly removed and immersed in a cold oxygenated modified Krebs Henseleit bicarbonate buffer. The penis' outer tunica was removed and the corpus cavernosum smooth muscle obtained and cut into strips approximately 3–5 mm long. The strips were suspended in tissue baths containing physiological salt solution (see above), and allowed to equilibrate for at least one hour under resting tension of 1.0 gram. Isometric force was measured as described above. Tissue strips were stimulated with the α-agonist phenylephrine (3 μM) and allowed to reach a steady level of force prior to the addition of test compounds. The results are expressed as the percentage inhibition of phenylephrine-induced force as compared to vehicle control.

[3] = test system: cloned mammalian (mSlo or hSlo) BK channels expressed in Xenopus oocytes; assay: Assay for BK channel openers: two-electrode voltage clamp of BK-mediated outward current in Xenopus oocytes; type: cell-based; settings: at 20 μM; percent increase over BK current in controls; voltage step to +140 mV; 5–10 oocytes
Protocol: The ability of the compounds of the invention to open BK channels and increase whole-cell outward (K^+) BK-mediated currents was assessed under voltage-clamp conditions by determining their ability to increase cloned mammalian (mSlo or hSlo) BK-mediated outward current heterologously expressed in Xenopus oocytes [Butler, A., et al., Science 1993, 261, 221–224; Dworetzky, S. I., et al., Mol. Brain Res. 1994, 27, 189–193; Gribkoff, V. K., et al., Mol. Phannacol. 1996, 50, 206–217]. The two BK constructs employed represent nearly structurally identical homologous proteins, and have proven to be pharmacologically indistinguishable in our tests. To isolate BK current from native (background, non-BK) current, the specific and potent BK channel-blocking toxin iberiotoxin (IBTX) [Galvez, A., et al., J. Biol. Chem. 1990, 265, 11083–11090] was employed at a supramaximal concentration, e.g., 50–100 nanomolar (“nM”). The relative contribution of BK channel-mediated current to total outward current was determined by subtraction of the current remaining in the presence of IBTX (non-BK current) from the current profiles obtained in all other experimental conditions (control, drug, and wash) [Gribkoff, V. K. et al., Mol. Pharmacol. 1996, 50, 206–217]. […] All compounds were tested in 5–10 oocytes and are reported at the indicated concentration of 20 micromolar (“μM”) (or as otherwise indicated); the effect of the selected compounds of the invention on BK current was expressed as the percent of control IBTX-sensitive current at a single transmembrane voltage (+140 mV) and is listed in Table 1.Recordings were accomplished using standard two-electrode voltage clamp techniques [Stuhmer, W., et al., Methods in Enzymology, 1992, 207, 319–339]; voltage-clamp protocols consisted of 500–750 milliseconds (“ms”) duration step depolarizations, from a holding potential of −60 mV, to a final voltage up to +140 mV in 20 mV steps. The experimental media (modified Barth's solution) consisted of millimolar (“mM”): NaCl (88), NaHCO3 (2.4), KCl (1.0), HEPES (10), MgSO4 (0.82), Ca(NO3)2 (0.33), CaCl2 (0.41); pH 7.5.

## Nc1ccc(Sc2c(-c3cc(Cl)ccc3O)c3cc(C(F)(F)F)ccc3[nH]c2=O)cc1 [Example 1, 3-[(4-Aminophenyl)thio]-4-(5-chloro-2-hydroxyphenyl)-6-(trifluoromethyl)-2(1H)-quinolinone]
[1]
  % Inhibition of force (RSI strips): 10%
[2]
  inhibition: 27%
[3]
  % MaxiK opening: 392%

## Cn1c(=O)c(Sc2ccc(N)cc2)c(-c2cc(Cl)ccc2O)c2cc(C(F)(F)F)ccc21 [Example 2, 3-[(4-Aminophenyl)thio]-4-(5-chloro-2-hydroxyphenyl)-1-methyl-6-(trifluoromethyl)-2(1H)-quinolinone]
[2]
  inhibition: 7%
[3]
  % MaxiK opening: 144%

## O=c1[nH]c2ccc(C(F)(F)F)cc2c(-c2cc(Cl)ccc2O)c1Sc1ncccn1 [Example 3, 4-(5-Chloro-2-hydroxy-phenyl)-3-(pyrimidin-2-ylsulfanyl)-6-trifluoromethyl-1H-quinolin-2-one]
other
  melting point: 302 to 303 °C
[3]
  % MaxiK opening: 144%

## O=c1[nH]c2ccc(C(F)(F)F)cc2c(-c2cc(Cl)ccc2O)c1Sc1ccncc1 [Example 4, 4-(5-Chloro-2-hydroxy-phenyl)-3-(pyridin-4-ylsulfanyl)-6-trifluoromethyl-1H-quinolin-2-one]
other
  melting point: 257 to 260 °C
[1]
  % Inhibition of force (RSI strips): 17%
[2]
  inhibition: 36%
[3]
  % MaxiK opening: 206%

## Cn1cnnc1Sc1c(-c2cc(Cl)ccc2O)c2cc(C(F)(F)F)ccc2[nH]c1=O [Example 5, 4-(5-Chloro-2-hydroxy-phenyl)-3-(4-methyl-4H-[1,2,4]triazol-3-ylsulfanyl)-6-trifluoromethyl-4a,8a-dihydro-1H-quinolin-2-one]
[2]
  inhibition: 35%
[3]
  % MaxiK opening: 167%

## O=c1[nH]c2ccc(C(F)(F)F)cc2c(-c2cc(Cl)ccc2O)c1Sc1ccc(O)cc1 [Example 6, 4-(5-Chloro-2-hydroxyphenyl)-3-(4-hydroxyphenylsulfanyl)-6-trifluoromethyl-1H-quinolin-2-one]
other
  melting point: 180 to 190 °C
[1]
  % Inhibition of force (RSI strips): 21%
[2]
  inhibition: 8%
[3]
  % MaxiK opening: 307%

## Nc1nnc(Sc2c(-c3cc(Cl)ccc3O)c3cc(C(F)(F)F)ccc3[nH]c2=O)s1 [Example 7, 3-(5-Amino-[1,3,4]thiadiazol-2-ylsulfanyl)-4-(5-chloro-2-hydroxyphenyl)-6-trifluoromethyl-1H-quinolin-2-one]
other
  melting point: 260 to 270 °C
[1]
  % Inhibition of force (RSI strips): 40%
[2]
  inhibition: 45%
[3]
  % MaxiK opening: 237%

## O=c1[nH]c2ccc(C(F)(F)F)cc2c(-c2cc(Cl)ccc2O)c1SCc1ccc(O)cc1 [Example 8, 4-(5-Chloro-2-hydroxyphenyl)-3-(4-hydroxybenzylsulfanyl)-6-trifluoromethyl-1H-quinolin-2-one]
other
  melting point: 206 to 208 °C
[2]
  inhibition: 33%
[3]
  % MaxiK opening: 227%

## O=c1[nH]c2ccc(C(F)(F)F)cc2c(-c2cc(Cl)ccc2O)c1Sc1ccccc1O [Example 9, 4-(5-Chloro-2-hydroxyphenyl)-3-(2-hydroxyphenylsulfanyl)-6-trifluoromethyl-1H-quinolin-2-one]
other
  melting point: 290 to 292 °C
[3]
  % MaxiK opening: 145%

## O=C(O)c1ccc(Sc2c(-c3cc(Cl)ccc3O)c3cc(C(F)(F)F)ccc3[nH]c2=O)cc1 [Example 10, 4-[4-(5-Chloro-2-hydroxy-phenyl)-2-oxo-6-trifluoromethyl-1,2-dihydro-quinolin-3-ylsulfanyl]-benzoic acid]
[2]
  inhibition: 29%
[3]
  % MaxiK opening: 209%

## COc1ccc(Cl)cc1-c1c(Sc2ccc(C(=O)O)cc2)c(=O)[nH]c2ccc(C(F)(F)F)cc12 [Example 11, 4-[4-(5-Chloro-2-methoxy-phenyl)-2-oxo-6-trifluoromethyl-1,2-dihydro-quinolin-3-ylsulfanyl]-benzoic acid]
[3]
  % MaxiK opening: 177%
